These results are taken from ChEMBL document CHEMBL2203115, “Design and synthesis of procollagen C-proteinase inhibitors” (Bioorg Med Chem Lett, 2012).

Peptide text beside a SMILES is read from it. * marks the point of attachment. NHOH = ON* Where only a bound is given, the exact number is not on record here.

Chain of Matrix metalloproteinase-9 (P14780 whole entry): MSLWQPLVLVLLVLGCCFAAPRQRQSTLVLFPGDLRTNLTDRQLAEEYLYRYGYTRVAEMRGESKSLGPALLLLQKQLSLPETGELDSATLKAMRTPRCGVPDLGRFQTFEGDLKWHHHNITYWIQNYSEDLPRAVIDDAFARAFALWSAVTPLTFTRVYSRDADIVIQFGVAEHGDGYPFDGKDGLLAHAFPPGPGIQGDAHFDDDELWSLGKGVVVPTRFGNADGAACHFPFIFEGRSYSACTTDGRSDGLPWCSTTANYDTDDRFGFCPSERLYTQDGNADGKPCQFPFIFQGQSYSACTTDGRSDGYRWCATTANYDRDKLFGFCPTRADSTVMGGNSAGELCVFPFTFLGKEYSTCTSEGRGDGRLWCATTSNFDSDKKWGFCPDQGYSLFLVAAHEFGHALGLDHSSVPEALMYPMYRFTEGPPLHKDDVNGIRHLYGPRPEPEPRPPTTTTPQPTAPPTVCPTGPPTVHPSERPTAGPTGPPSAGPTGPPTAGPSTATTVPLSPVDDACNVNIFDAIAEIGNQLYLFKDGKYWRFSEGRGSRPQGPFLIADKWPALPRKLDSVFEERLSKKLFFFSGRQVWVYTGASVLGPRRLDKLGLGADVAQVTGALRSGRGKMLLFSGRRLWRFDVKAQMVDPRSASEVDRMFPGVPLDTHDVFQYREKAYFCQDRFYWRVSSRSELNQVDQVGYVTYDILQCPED

The first experiment deals with T1, Interstitial collagenase (Homo sapiens, UniProt P03956).
T1 sequence (P03956 whole entry): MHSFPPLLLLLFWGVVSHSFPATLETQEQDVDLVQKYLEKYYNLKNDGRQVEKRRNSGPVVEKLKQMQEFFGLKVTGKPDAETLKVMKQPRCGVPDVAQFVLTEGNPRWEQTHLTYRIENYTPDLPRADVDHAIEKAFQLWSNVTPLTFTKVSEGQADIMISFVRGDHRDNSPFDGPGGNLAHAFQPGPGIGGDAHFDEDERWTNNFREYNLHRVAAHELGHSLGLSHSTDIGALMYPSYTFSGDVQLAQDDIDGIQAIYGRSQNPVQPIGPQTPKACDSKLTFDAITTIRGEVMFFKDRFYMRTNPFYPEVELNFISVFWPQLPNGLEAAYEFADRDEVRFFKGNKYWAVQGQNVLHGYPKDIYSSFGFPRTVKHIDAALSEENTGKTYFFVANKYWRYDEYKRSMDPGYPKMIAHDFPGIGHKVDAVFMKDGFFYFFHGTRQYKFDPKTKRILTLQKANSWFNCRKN
Briefly: Inhibition of para-amino phenylmercuric acetate-activated MMP1 using Mca-P-L-G-L-Dap(Dnp)-A-R-NH2 as substrate after 1 hr by fluorescence assay.
One may read the IC50 as the concentration that gives 50% inhibition. Low readings indicate higher potency, high ones lower potency. In turn, `COc1ccc(CCN(CCC(=O)NO)S(=O)(=O)c2ccc(NC(=O)NCc3ccccc3)cc2)cc1` showed an IC50 of more than 25 µM.
Same read-out and setting: in the case of `COc1ccc(CCN(CCC(=O)NO)S(=O)(=O)c2ccc(/C(N)=N/O)cc2)cc1` it was more than 25 µM.

A further experiment has as its target Matrix metalloproteinase-9 (Homo sapiens, UniProt P14780). Nature of the experiment: Inhibition of para-amino phenylmercuric acetate-activated MMP9 using Mca-P-L-G-L-Dap(Dnp)-A-R-NH2 as substrate after 1 hr by fluorescence assay.
Compound `COc1ccc(CCN(CCC(=O)NO)S(=O)(=O)c2ccc(NC(=O)NCc3ccccc3)cc2)cc1` gave an IC50 of more than 25 µM.
On the same count and under the same terms, to `COc1ccc(CCN(CCC(=O)NO)S(=O)(=O)c2ccc(/C(N)=N/O)cc2)cc1` belongs more than 25 µM; to `COc1ccc(CCN(CCC(=O)NO)S(=O)(=O)c2ccc(S(C)(=O)=O)cc2)cc1`, more than 6 µM.
Regarding `COc1ccc(S(=O)(=O)N(CC(=O)NO)Cc2ccc(Cl)cc2)cc1`, the half-maximal inhibitory concentration (IC50) worked out at 0.05 µM.

The next experiment concerns the target T2, Bone morphogenetic protein 1 (Homo sapiens, UniProt P13497).
T2 sequence (P13497 whole entry): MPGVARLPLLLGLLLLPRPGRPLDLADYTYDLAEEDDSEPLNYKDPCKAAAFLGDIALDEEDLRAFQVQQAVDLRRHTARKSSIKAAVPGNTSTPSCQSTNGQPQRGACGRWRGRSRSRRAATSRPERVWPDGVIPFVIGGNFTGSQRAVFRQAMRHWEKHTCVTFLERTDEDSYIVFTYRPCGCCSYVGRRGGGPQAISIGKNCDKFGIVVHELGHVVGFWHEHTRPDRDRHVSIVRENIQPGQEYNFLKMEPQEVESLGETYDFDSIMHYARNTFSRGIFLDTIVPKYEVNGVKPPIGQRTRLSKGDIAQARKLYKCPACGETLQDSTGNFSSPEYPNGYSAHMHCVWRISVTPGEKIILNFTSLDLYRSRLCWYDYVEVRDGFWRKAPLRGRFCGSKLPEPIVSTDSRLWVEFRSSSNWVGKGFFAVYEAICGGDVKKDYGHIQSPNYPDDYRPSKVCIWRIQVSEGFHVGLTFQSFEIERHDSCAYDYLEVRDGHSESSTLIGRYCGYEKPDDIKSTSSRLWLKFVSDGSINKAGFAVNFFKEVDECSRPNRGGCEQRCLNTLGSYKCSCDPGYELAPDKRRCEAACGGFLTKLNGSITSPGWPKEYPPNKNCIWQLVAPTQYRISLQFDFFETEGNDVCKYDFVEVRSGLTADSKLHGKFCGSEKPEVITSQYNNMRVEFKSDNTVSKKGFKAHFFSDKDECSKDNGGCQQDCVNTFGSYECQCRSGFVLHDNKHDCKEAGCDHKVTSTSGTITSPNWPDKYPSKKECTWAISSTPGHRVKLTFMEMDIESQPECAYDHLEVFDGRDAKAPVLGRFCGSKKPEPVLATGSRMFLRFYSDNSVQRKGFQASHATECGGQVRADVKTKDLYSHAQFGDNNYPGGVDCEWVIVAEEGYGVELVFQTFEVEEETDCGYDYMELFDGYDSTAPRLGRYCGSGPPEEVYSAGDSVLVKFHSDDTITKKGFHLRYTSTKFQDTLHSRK
Nature of the experiment: Inhibition of PCP after 1 hr by fluorescence assay.
Compound `COc1ccc(S(=O)(=O)N(CCC(=O)NO)CCc2ccc(OC)c(OC)c2)cc1` came in with a 50% inhibitory concentration (IC50) of 42 µM.
Same read-out and setting: to `COc1ccc(S(=O)(=O)NCCC(=O)NO)cc1` belongs 166 µM; to `CCCCS(=O)(=O)N(CCC(=O)NO)CCc1ccc(OC)cc1`, 6.7 µM; to `CCCCS(=O)(=O)N(CCc1ccc(OC)cc1)CC(=O)NO`, 55 µM.
On the same count and under the same terms, in the case of `O=C(CCN(CCc1ccccc1)S(=O)(=O)c1ccccc1)NO` it was 2.2 µM.
`O=C(CCN(CCc1ccccc1)S(=O)(=O)c1ccc(C(=O)O)cc1)NO` displayed an IC50 of 1 µM.
The compound `COc1ccc(CCN(CCC(=O)NO)S(=O)(=O)c2ccccc2/C(N)=N\O)cc1` had an IC50 of 7.1 µM.
Compound `COc1ccc(CCN(CCC(=O)NO)S(=O)(=O)c2ccccc2S(C)(=O)=O)cc1` yielded a half-maximal inhibitory concentration (IC50) of 9.1 µM.
Still for that read-out and setting: to `CC(C)(C)c1ccc(S(=O)(=O)N(CCC(=O)NO)CCc2ccccc2)cc1` belongs 17 µM; to `COc1ccc(CCN(CC(=O)CS)S(=O)(=O)c2ccc(S(C)(=O)=O)cc2)cc1`, 4.7 µM.
On the same count and under the same terms, to `COc1ccc(CCN(CCC(=O)CS)S(=O)(=O)c2ccc(S(C)(=O)=O)cc2)cc1` belongs 13 µM; to `COc1ccc(CCN(CCN(O)C(N)=O)S(=O)(=O)c2ccc(S(C)(=O)=O)cc2)cc1`, more than 100 µM; to `COc1ccc(CCN(CCCS)S(=O)(=O)c2ccc(S(C)(=O)=O)cc2)cc1`, 14 µM.
The same measure, in the same setting: in the case of `COc1ccc(CCN(CCS)S(=O)(=O)c2ccc(S(C)(=O)=O)cc2)cc1` it was 9.4 µM.
Compound `COc1ccc(S(=O)(=O)N(CCC(=O)NO)c2ccccc2)cc1` registered an IC50 of 3 µM.
Same read-out and setting: to `COc1ccc(S(=O)(=O)N(CCC(=O)NO)Cc2ccccc2)cc1` belongs 4.5 µM; to `COc1ccc(S(=O)(=O)N(CCCC(=O)NO)c2ccccc2)cc1`, 28 µM; to `COc1ccc(S(=O)(=O)N(CCCC(=O)NO)Cc2ccccc2)cc1`, 10 µM.
Take `COc1ccc(S(=O)(=O)N(CC(=O)NO)Cc2ccc(F)cc2)cc1`: the half-maximal inhibitory concentration (IC50) came out at 34 µM.
With `CCCCOC(=O)CN(CC(=O)NO)S(=O)(=O)c1ccc(OC)cc1`, half-maximal inhibition (IC50) required 167 µM.
For the compound `COc1ccc(N(CC(=O)NO)S(=O)(=O)c2ccc(OC)cc2)cc1`, the IC50 amounted to 73 µM.
The same measure, in the same setting: to `COc1ccc(CCN(CC(=O)NO)S(=O)(=O)c2ccc(OC)cc2)cc1` belongs 18 µM; to `COc1ccc(S(=O)(=O)N(CC(=O)NO)Cc2ccc(C(F)(F)F)cc2)cc1`, 67 µM; to `COc1ccc(S(=O)(=O)N(CC(=O)NO)C(c2ccccc2)c2ccccc2)cc1`, 102 µM.
For `CCC(C)N(CCC(=O)NO)S(=O)(=O)c1ccc(OC)cc1` (stereo not given), the IC50 turned out to be 1.7 µM.
On the same count and under the same terms, to `COc1ccc(S(=O)(=O)N(CCC(=O)NO)CC2CCCCC2)cc1` belongs 1 µM; to `COc1ccc(S(=O)(=O)N(CCC(=O)NO)CCc2ccccn2)cc1`, 8.1 µM.
For the compound `COc1ccc(N(CCC(=O)NO)S(=O)(=O)c2ccc(OC)cc2)cc1`, half-maximal inhibition (IC50) required 1.7 µM.
The same measure, in the same setting: to `COc1ccc(S(=O)(=O)N(CCC(=O)NO)CCc2cccc(OC)c2)cc1` belongs 2.3 µM; to `COc1ccc(S(=O)(=O)N(CCC(=O)NO)CCc2ccc([N+](=O)[O-])cc2)cc1`, 11 µM.
`COc1ccc(S(=O)(=O)N(CCC(=O)NO)CCc2ccc(S(N)(=O)=O)cc2)cc1` had an IC50 of 23 µM.
`CNC(=O)[C@H](CCC(=O)O)NC(=O)[C@H](CC(=O)O)NCC(=O)O` returned an IC50 of 1500 µM.
The same measure, in the same setting: to `CNC(=O)[C@H](CCC(=O)O)NC(=O)C(CS)CC(=O)O` (stereo not given in full) belongs 85 µM; to `COc1ccc(S(=O)(=O)N[C@@H](CC(=O)O)C(=O)NO)cc1`, 10 µM; to `COc1ccc(S(=O)(=O)N(Cc2ccccc2)[C@@H](CC(=O)O)C(=O)NO)cc1`, 2.8 µM.
On the same count and under the same terms, in the case of `COc1ccc(S(=O)(=O)N(CC(=O)NO)c2ccccc2)cc1` it was 69 µM; in that of `COc1ccc(S(=O)(=O)N(CC(=O)NO)Cc2ccc(Cl)cc2)cc1`, 19 µM; in that of `COc1ccc(S(=O)(=O)N(CC(=O)O)CC(=O)NO)cc1`, 345 µM.
`COc1ccc(S(=O)(=O)N(CCc2ccccc2)CC(=O)NO)cc1` returned a 50% inhibitory concentration (IC50) of 18 µM.
On to `COc1ccc(CN(CC(=O)NO)S(=O)(=O)c2ccc(OC)cc2)cc1`, for which the concentration for half-maximal inhibition (IC50) came to 29 µM.
In the case of `COc1ccc(S(=O)(=O)N(CC(=O)NO)Cc2ccccc2)cc1`, the IC50 turned out to be 16 µM.
Take `CCC(C)N(CC(=O)NO)S(=O)(=O)c1ccc(OC)cc1` (stereo not given): inhibition was half-maximal at 112 µM (IC50).
Take `CC(=O)N1CCC[C@H]1C(=O)N[C@@H](Cc1ccc(O)cc1)C(=O)N[C@@H](Cc1ccc(O)cc1)C(=O)NCC(=O)NO` (Ac-PYYG-{NHOH}): the IC50 came out at 42 µM.
Take `CNC(=O)[C@H](CCC(=O)O)NC(=O)C(CC(=O)O)CC(=O)NO` (mixture of isomers): the IC50 is 40 µM.

The target in the next experiment is 72 kDa type IV collagenase (Homo sapiens, UniProt P08253). Briefly: Inhibition of para-amino phenylmercuric acetate-activated MMP2 using Mca-P-L-G-L-Dap(Dnp)-A-R-NH2 as substrate after 1 hr by fluorescence assay.
Chain of 72 kDa type IV collagenase (P08253 whole entry): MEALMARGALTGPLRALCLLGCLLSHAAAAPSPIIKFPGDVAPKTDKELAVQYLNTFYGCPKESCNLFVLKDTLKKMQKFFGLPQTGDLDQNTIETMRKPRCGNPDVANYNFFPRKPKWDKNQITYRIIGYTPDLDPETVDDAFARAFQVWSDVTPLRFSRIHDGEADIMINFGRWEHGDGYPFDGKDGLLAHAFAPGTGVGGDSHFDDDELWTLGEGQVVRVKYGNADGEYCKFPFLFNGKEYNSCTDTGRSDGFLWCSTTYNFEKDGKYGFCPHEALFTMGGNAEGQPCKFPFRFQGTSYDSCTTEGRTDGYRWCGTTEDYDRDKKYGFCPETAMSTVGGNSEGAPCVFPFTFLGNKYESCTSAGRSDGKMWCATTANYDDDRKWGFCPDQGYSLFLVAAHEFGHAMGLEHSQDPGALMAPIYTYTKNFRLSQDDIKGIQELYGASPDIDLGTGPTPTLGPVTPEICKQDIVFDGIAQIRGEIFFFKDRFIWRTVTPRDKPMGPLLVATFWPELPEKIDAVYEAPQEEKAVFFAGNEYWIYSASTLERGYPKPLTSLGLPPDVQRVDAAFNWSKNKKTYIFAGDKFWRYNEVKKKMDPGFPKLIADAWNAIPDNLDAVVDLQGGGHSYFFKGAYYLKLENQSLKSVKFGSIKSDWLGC
`COc1ccc(CCN(CCC(=O)NO)S(=O)(=O)c2ccc(NC(=O)NCc3ccccc3)cc2)cc1` had an IC50 of more than 25 µM.
On to `COc1ccc(CCN(CCC(=O)NO)S(=O)(=O)c2ccc(/C(N)=N/O)cc2)cc1`, for which the IC50 is more than 25 µM.
With `COc1ccc(CCN(CCC(=O)NO)S(=O)(=O)c2ccc(S(C)(=O)=O)cc2)cc1`, the IC50 is more than 6 µM.
Still for that read-out and setting: to `COc1ccc(S(=O)(=O)N(CC(=O)NO)Cc2ccc(Cl)cc2)cc1` belongs 0.14 µM.

Another experiment deals with 3T3-L1. Briefly: Cytotoxicity against mouse 3T3L1 cells. Type of experiment: cell-based.
For the compound `COc1ccc(CCN(CCC(=O)NO)S(=O)(=O)c2ccc(/C(N)=N/O)cc2)cc1`, the IC50 turned out to be 150 µM.
